Each compound was assayed against T1, recombinant CETP (rCETP) (Homo sapiens, UniProt P11597) (assay: RTA assay using recombinant CETP (2% RTA)). Settings: RTA assay in 2% human serum; read-out: IC50.
T1 sequence (P11597 18-493): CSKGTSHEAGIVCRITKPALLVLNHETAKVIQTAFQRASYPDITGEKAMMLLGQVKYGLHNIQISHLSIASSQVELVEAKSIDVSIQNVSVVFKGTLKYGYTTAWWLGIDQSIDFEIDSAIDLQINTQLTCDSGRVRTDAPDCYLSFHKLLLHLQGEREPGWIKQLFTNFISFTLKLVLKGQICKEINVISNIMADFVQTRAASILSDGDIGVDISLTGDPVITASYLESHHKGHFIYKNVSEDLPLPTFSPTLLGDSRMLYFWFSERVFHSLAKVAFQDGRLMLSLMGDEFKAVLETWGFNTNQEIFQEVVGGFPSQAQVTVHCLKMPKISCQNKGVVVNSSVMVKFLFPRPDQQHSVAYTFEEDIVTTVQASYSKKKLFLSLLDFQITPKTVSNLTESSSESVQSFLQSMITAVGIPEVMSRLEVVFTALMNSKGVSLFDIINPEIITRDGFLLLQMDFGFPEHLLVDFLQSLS
Assay type: biochemical
Procedure: In Vitro Radioactive Assays of CETP-Catalyzed CE and TG Transfer (RTA Assay)
Reagents and sources are: [3H] cholesteryl oleate (GE #TRK.886), [3H]
Both assays measure the transfer of [3H] cholesteryl oleate or [3H]triolein from exogenous LDL to HDL.
After a brief vortex, the solution is sonicated until clear and mixed with 20 mL of fresh human serum. The mixture is incubated overnight at 37° C. […] Once isolated the particles are dialyzed 3× in CETP buffer (50 mM Tris, pH 7.4, 100 mM NaCl, 1 mM EDTA). Human HDL is purchased from Intracel and used as the acceptor particles.
Transfer assays are performed in a 96-well v-bottom polypropylene plate. […] 1 μL of each test compound diluted in DMSO is added to 47 μL of assay cocktail per well and incubated at 37° C. for 1 hour. To initiate the transfer reaction, 2 μL radiolabeled LDL is added. After an additional 60 min of incubation at 37° C., the transfer action is terminated by precipitation of LDL with an equal volume of 20% W/V PEG 8000. The plates are centrifuged at 2000 rpm for 30 minutes at 4° C. A 40 μL aliquot of the HDL-containing supernatant is transferred to a Packard Optiplate with 200 μL of MicroScint 20. After mixing, plates are counted by liquid scintillation. Counts present in the supernatant for blanks (wells containing only HDL acceptor, CETP buffer and DMSO) are subtracted from those containing test compounds and used to correct for non-specific transfer.
Comparison of the counts of samples with inhibitors to an uninhibited (DMSO only) positive control yield a percent inhibition. A plot of percent inhibition vs. log of inhibitor concentration, fit to a Sigmoidal 4 parameter equation is used to calculate IC50.
Compound `COc1ccc(Cl)cc1-c1ccc(N2CCC2)nc1CN1C(=O)O[C@H](c2cc(C(F)(F)F)cc(C(F)(F)F)c2)[C@@H]1C` [Example 27, (4S,5R)-3-{[6-azetidin-1-yl-3-(5-chloro-2-methoxyphenyl)pyridin-2-yl]methyl}-5-[3,5-bis(trifluoromethyl)phenyl]-4-methyl-1,3-oxazolidin-2-one] has an IC50 of 0.003 µM.
Work on `COC(=O)c1cc(-c2ccc(OC)c(-c3ccc(N4CCC4)nc3CN3C(=O)O[C@H](c4cc(C(F)(F)F)cc(C(F)(F)F)c4)[C@@H]3C)c2)no1` [Example 28] yielded an IC50 of 0.08 µM.
With `COC(=O)c1c(C)c(-c2ccc(OC)c(-c3ccc(N4CCC4)nc3CN3C(=O)O[C@H](c4cc(C(F)(F)F)cc(C(F)(F)F)c4)[C@@H]3C)c2)nn1C` [Example 29] the IC50 was 0.014 µM.
Compound `COC(=O)c1cnc(-c2ccc(OC)c(-c3ccc(N4CCC4)nc3CN3C(=O)O[C@H](c4cc(C(F)(F)F)cc(C(F)(F)F)c4)[C@@H]3C)c2)cn1` [Example 30] has an IC50 of 0.133 µM.
Compound `COC(=O)CCc1ccc(OC)c(-c2ccc(N3CCC3)nc2CN2C(=O)O[C@H](c3cc(F)c(F)c(F)c3)[C@@H]2C)c1` [Example 31] has an IC50 of 0.097 µM.
Compound `COC(=O)CC(C)(C)c1ccc(OC)c(-c2ccc(N3CCC3)nc2CN2C(=O)O[C@H](c3cc(F)c(F)c(F)c3)[C@@H]2C)c1` [Example 32] has an IC50 of 0.107 µM.
In the case of `COc1ccc([C@H]2CC[C@H](C(=O)OC)CC2)cc1-c1ccc(N2CCC2)nc1CN1C(=O)O[C@H](c2cc(F)c(F)c(F)c2)[C@@H]1C` [Example 35], the IC50 is reported as 0.439 µM.
`COC(=O)c1ccc(-c2cc(-c3ccc(N4CCC4)nc3CN3C(=O)O[C@H](c4cc(F)c(F)c(F)c4)[C@@H]3C)c(OC)cc2F)c(C)c1` [Example 36] showed an IC50 of 0.026 µM.
`COc1cc(F)c([C@H]2C[C@@H](C(=O)OC)C2)cc1-c1ccc(N2CCC2)nc1CN1C(=O)O[C@H](c2cc(C(F)(F)F)cc(C(F)(F)F)c2)[C@@H]1C` [Example 37] gave an IC50 of 0.017 µM.
Work on `COc1cc(F)c([C@H]2C[C@H](C(=O)OC)C2)cc1-c1ccc(N2CCC2)nc1CN1C(=O)O[C@H](c2cc(C(F)(F)F)cc(C(F)(F)F)c2)[C@@H]1C` [Example 38] yielded an IC50 of 0.005 µM.
`COC(=O)Cc1ccc(OC)c(-c2c(C)cc(N3CCC3)nc2CN2C(=O)O[C@H](c3cc(C(F)(F)F)cc(C(F)(F)F)c3)[C@@H]2C)c1` [Example 40] gave an IC50 of 0.003 µM.
For `COC(=O)c1cc(C)c(-c2ccc(OC)c(-c3ccc(N4CCC4)nc3CN3C(=O)O[C@H](c4cc(C(F)(F)F)cc(C(F)(F)F)c4)[C@@H]3C)c2)s1` [Example 46, Methyl 5-{3-[6-azetidin-1-yl-2-({(4S,5R)-5-[3,5-bis(trifluoromethyl)phenyl]-4-methyl-2-oxo-1,3-oxazolidin-3-yl}methyl)pyridin-3-yl]-4-methoxyphenyl}-4-methylthiophene-2-carboxylate], the IC50 was 0.01 µM.
`COC(=O)c1ccc(-c2ccc(OC)c(-c3ccc(N4CCC4)nc3CN3C(=O)O[C@H](c4cc(C(F)(F)F)cc(C(F)(F)F)c4)[C@@H]3C)c2)o1` [Example 47, Methyl 5-{3-[6-azetidin-1-yl-2-({(4S,5R)-5-[3,5-bis(trifluoromethyl)phenyl]-4-methyl-2-oxo-1,3-oxazolidin-3-yl}methyl)pyridin-3-yl]-4-methoxyphenyl}-2-furoate] was tested, and the IC50 was 0.034 µM.
`COC(=O)c1ccc(-c2ccc(OC)c(-c3ccc(N4CCC4)nc3CN3C(=O)O[C@H](c4cc(C(F)(F)F)cc(C(F)(F)F)c4)[C@@H]3C)c2)s1` [Example 48] showed an IC50 of 0.065 µM.
In the case of `COC(=O)c1cc(-c2ccc(OC)c(-c3ccc(N4CCC4)nc3CN3C(=O)O[C@H](c4cc(C(F)(F)F)cc(C(F)(F)F)c4)[C@@H]3C)c2)cs1` [Example 49], the IC50 is reported as 0.098 µM.
In the case of `COC(=O)c1scc(-c2ccc(OC)c(-c3cc(Br)c(N4CCC4)nc3CN3C(=O)O[C@H](c4cc(C(F)(F)F)cc(C(F)(F)F)c4)[C@@H]3C)c2)c1C` [Example 50], the IC50 is reported as 0.015 µM.
In the case of `COC(=O)c1cc(-c2ccc(OC)c(-c3ccc(N4CCC4)nc3CN3C(=O)O[C@H](c4cc(C(F)(F)F)cc(C(F)(F)F)c4)[C@@H]3C)c2)c(C)s1` [Example 51], the IC50 is reported as 0.012 µM.
`COC(=O)c1sc(-c2ccc(OC)c(-c3ccc(N4CCC4)nc3CN3C(=O)O[C@H](c4cc(C(F)(F)F)cc(C(F)(F)F)c4)[C@@H]3C)c2)c(C)c1C` [Example 52] gave an IC50 of 0.015 µM.
In the case of `COC(=O)c1coc(-c2ccc(OC)c(-c3ccc(N4CCC4)nc3CN3C(=O)O[C@H](c4cc(C(F)(F)F)cc(C(F)(F)F)c4)[C@@H]3C)c2)c1` [Example 53], the IC50 is reported as 0.061 µM.
Compound `CCOC(=O)c1csc(-c2ccc(OC)c(-c3ccc(N4CCC4)nc3CN3C(=O)O[C@H](c4cc(C(F)(F)F)cc(C(F)(F)F)c4)[C@@H]3C)c2)n1` [Example 54] has an IC50 of 0.189 µM.
With `CCOC(=O)c1cc(C)c(-c2ccc(OC)c(-c3ccc(N4CCC4)nc3CN3C(=O)O[C@H](c4cc(C(F)(F)F)cc(C(F)(F)F)c4)[C@@H]3C)c2)n1C` [Example 56] the IC50 was 0.005 µM.
Work on `CCOC(=O)c1c(C)c(-c2ccc(OC)c(-c3ccc(N4CCC4)nc3CN3C(=O)O[C@H](c4cc(C(F)(F)F)cc(C(F)(F)F)c4)[C@@H]3C)c2)c(C)n1C` [Example 57] yielded an IC50 of 0.007 µM.
With `COC(=O)c1ccc(-c2ccc(OC)c(-c3ccc(N4CCC4)nc3CN3C(=O)O[C@H](c4cc(C(F)(F)F)cc(C(F)(F)F)c4)[C@@H]3C)c2)cn1` [Example 58] the IC50 was 0.029 µM.
`COC(=O)c1ccc(-c2ccc(OC)c(-c3ccc(N4CCC4)nc3CN3C(=O)O[C@H](c4cc(C(F)(F)F)cc(C(F)(F)F)c4)[C@@H]3C)c2)nc1` [Example 59] gave an IC50 of 0.195 µM.
`COc1ccc(CCC(=O)O)cc1-c1ccc(N2CCC2)nc1CN1C(=O)O[C@H](c2cc(C(F)(F)F)cc(C(F)(F)F)c2)[C@@H]1C` [Example 60, 3-{3-[6-Azetidin-1-yl-2-({(4S,5R)-5-[3,5-bis(trifluoromethyl)phenyl]-4-methyl-2-oxo-1,3-oxazolidin-3-yl}methyl)pyridin-3-yl]-4-methoxyphenyl}propanoic acid] showed an IC50 of 0.011 µM.
For `COc1ccc(CCC(=O)O)cc1-c1c(C)cc(N2CCC2)nc1CN1C(=O)O[C@H](c2cc(C(F)(F)F)cc(C(F)(F)F)c2)[C@@H]1C` [Example 61, 3-{3-[6-Azetidin-1-yl-2-({(4S,5R)-5-[3,5-bis(trifluoromethyl)phenyl]-4-methyl-2-oxo-1,3-oxazolidin-3-yl}methyl)-4-methylpyridin-3-yl]-4-methoxyphenyl}propanoic acid], the IC50 was 0.005 µM.
With `COc1ccc(CCC(=O)O)cc1-c1ccc(N2CCCC2)nc1CN1C(=O)O[C@H](c2cc(C(F)(F)F)cc(C(F)(F)F)c2)[C@@H]1C` [Example 62] the IC50 was 0.049 µM.
For `COc1ccc(CCC(=O)O)cc1-c1c(C)cc(N2CC(F)(F)C2)nc1CN1C(=O)O[C@H](c2cc(C(F)(F)F)cc(C(F)(F)F)c2)[C@@H]1C` [Example 63], the IC50 was 0.005 µM.
With `COc1ccc(CCC(=O)O)cc1-c1ccc(N2CC(F)(F)C2)nc1CN1C(=O)O[C@H](c2cc(C(F)(F)F)cc(C(F)(F)F)c2)[C@@H]1C` [Example 64] the IC50 was 0.013 µM.
For `COc1cc(F)c(CCC(=O)O)cc1-c1ccc(N2CC(F)(F)C2)nc1CN1C(=O)O[C@H](c2cc(C(F)(F)F)cc(C(F)(F)F)c2)[C@@H]1C` [Example 65], the IC50 was 0.024 µM.
`COc1ccc([C@@H]2C[C@H]2C(=O)O)cc1-c1ccc(N2CC(F)(F)C2)nc1CN1C(=O)O[C@H](c2cc(C(F)(F)F)cc(C(F)(F)F)c2)[C@@H]1C` [Example 66] was tested, and the IC50 was 0.008 µM.
Compound `COc1ccc([C@H]2C[C@@H]2C(=O)O)cc1-c1ccc(N2CC(F)(F)C2)nc1CN1C(=O)O[C@H](c2cc(C(F)(F)F)cc(C(F)(F)F)c2)[C@@H]1C` [Example 67] has an IC50 of 0.014 µM.
`COc1ccc([C@@H]2C[C@H]2C(=O)O)cc1-c1c(C)cc(N2CCC2)nc1CN1C(=O)O[C@H](c2cc(C(F)(F)F)cc(C(F)(F)F)c2)[C@@H]1C` [Example 68] showed an IC50 of 0.004 µM.
For `COc1cc(F)c(CCC(=O)O)cc1-c1c(C)cc(N2CCC2)nc1CN1C(=O)O[C@H](c2cc(C(F)(F)F)cc(C(F)(F)F)c2)[C@@H]1C` [Example 69], the IC50 was 0.005 µM.
In the case of `COc1ccc(CCC(=O)O)cc1-c1c(CN2C(=O)O[C@H](c3cc(C(F)(F)F)cc(C(F)(F)F)c3)[C@@H]2C)nc(N2CCC2)c(Br)c1C` [Example 70], the IC50 is reported as 0.004 µM.
For `COc1ccc([C@H]2C[C@@H]2C(=O)O)cc1-c1c(C)cc(N2CCC2)nc1CN1C(=O)O[C@H](c2cc(C(F)(F)F)cc(C(F)(F)F)c2)[C@@H]1C` [Example 71], the IC50 was 0.005 µM.
`COc1ccc([C@@H]2C[C@H]2C(=O)O)cc1-c1ccc(N2CCC2)nc1CN1C(=O)O[C@H](c2cc(C(F)(F)F)cc(C(F)(F)F)c2)[C@@H]1C` [Example 72] was tested, and the IC50 was 0.007 µM.
